Reference: PubChem BioAssay (NCI)
Several values for one entry are separate records, joined by “and”; a condition that tells them apart may be missing. Equal values may be shown once.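 1) Cells in 96-well plates. 2) Compound, 48 h, 5 concentrations. 3) Linear interpolation between surrounding doses. 4) Unreached endpoint = highest concentration. GI50 marks 50% less growth. Definition used: TGI = concentration required for complete inhibition of growth.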

Tests used:
Assay in all cases: NCI-60 cell line screen, 48 h; in the data active = GI50 below about 0.43 µM; inactive = the rest
786-0 renal = tested on: 786-0 renal
A498 renal = tested on: A498 renal
A549 NSCLC = tested on: A549 NSCLC
ACHN renal = tested on: ACHN renal
BT-549 breast = tested on: BT-549 breast
CAKI-1 renal = tested on: CAKI-1 renal
CCRF-CEM leukemia = tested on: CCRF-CEM leukemia
COLO 205 colon = tested on: COLO 205 colon
DU-145 prostate = tested on: DU-145 prostate
EKVX NSCLC = tested on: EKVX NSCLC
HCC-2998 colon = tested on: HCC-2998 colon
HCT-116 colon = tested on: HCT-116 colon
HCT-15 colon = tested on: HCT-15 colon
HL-60(TB) leukemia = tested on: HL-60(TB) leukemia
HOP-62 NSCLC = tested on: HOP-62 NSCLC
HOP-92 NSCLC = tested on: HOP-92 NSCLC
HS 578T breast = tested on: HS 578T breast
HT29 colon = tested on: HT29 colon
IGROV1 ovarian = tested on: IGROV1 ovarian
K-562 leukemia = tested on: K-562 leukemia
KM12 colon = tested on: KM12 colon
LOX IMVI melanoma = tested on: LOX IMVI melanoma
M14 melanoma = tested on: M14 melanoma
MALME-3M melanoma = tested on: MALME-3M melanoma
MCF7 breast = tested on: MCF7 breast
MDA-MB-231 breast = tested on: MDA-MB-231 breast
MDA-MB-435 = tested on: MDA-MB-435
MDA-N = tested on: MDA-N
MOLT-4 leukemia = tested on: MOLT-4 leukemia
NCI-H226 lung = tested on: NCI-H226 lung
NCI-H23 lung = tested on: NCI-H23 lung
NCI-H460 lung = tested on: NCI-H460 lung
NCI-H522 lung = tested on: NCI-H522 lung
OVCAR-3 ovarian = tested on: OVCAR-3 ovarian
OVCAR-4 ovarian = tested on: OVCAR-4 ovarian
OVCAR-5 ovarian = tested on: OVCAR-5 ovarian
PC-3 prostate = tested on: PC-3 prostate
RPMI-8226 leukemia = tested on: RPMI-8226 leukemia
RXF 393 renal = tested on: RXF 393 renal
SF-268 CNS = tested on: SF-268 CNS
SF-295 CNS = tested on: SF-295 CNS
SF-539 CNS = tested on: SF-539 CNS
SK-MEL-2 melanoma = tested on: SK-MEL-2 melanoma
SK-MEL-28 melanoma = tested on: SK-MEL-28 melanoma
SK-MEL-5 melanoma = tested on: SK-MEL-5 melanoma
SK-OV-3 ovarian = tested on: SK-OV-3 ovarian
SN12C renal = tested on: SN12C renal
SNB-19 CNS = tested on: SNB-19 CNS
SR leukemia = tested on: SR leukemia
SW-620 colon = tested on: SW-620 colon
T-47D breast = tested on: T-47D breast
TK-10 renal = tested on: TK-10 renal
U251 CNS = tested on: U251 CNS
UACC-257 melanoma = tested on: UACC-257 melanoma
UACC-62 melanoma = tested on: UACC-62 melanoma
UO-31 renal = tested on: UO-31 renal
OVCAR-8 ovarian = tested on: OVCAR-8 ovarian
SNB-75 CNS = tested on: SNB-75 CNS

COc1cccc2c(Nc3ccc(S(=O)(=O)Nc4ncccn4)cc3)c3ccc([N+](=O)[O-])cc3nc12
13.9 µM: TGI (SR leukemia)
81.2 µM: TGI (MOLT-4 leukemia)
88.6 µM: TGI (HL-60(TB) leukemia)
> 100 µM: TGI (786-0 renal) | TGI (A498 renal) | TGI (A549 NSCLC) | TGI (ACHN renal) | TGI (BT-549 breast) | TGI (CAKI-1 renal) | TGI (CCRF-CEM leukemia) | TGI (COLO 205 colon) | TGI (DU-145 prostate) | TGI (EKVX NSCLC) | TGI (HCC-2998 colon) | TGI (HCT-116 colon) | TGI (HCT-15 colon) | TGI (HOP-62 NSCLC) | TGI (HOP-92 NSCLC) | TGI (HS 578T breast) | TGI (HT29 colon) | TGI (IGROV1 ovarian) | TGI (K-562 leukemia) | TGI (KM12 colon) | TGI (LOX IMVI melanoma) | TGI (M14 melanoma) | TGI (MALME-3M melanoma) | TGI (MCF7 breast) | TGI (MDA-MB-231 breast) | TGI (MDA-MB-435) | TGI (MDA-N) | TGI (NCI-H226 lung) | TGI (NCI-H23 lung) | TGI (NCI-H460 lung) | TGI (NCI-H522 lung) | TGI (OVCAR-3 ovarian) | TGI (OVCAR-4 ovarian) | TGI (OVCAR-5 ovarian) | TGI (PC-3 prostate) | TGI (RPMI-8226 leukemia) | TGI (RXF 393 renal) | TGI (SF-268 CNS) | TGI (SF-295 CNS) | TGI (SF-539 CNS) | TGI (SK-MEL-2 melanoma) | TGI (SK-MEL-28 melanoma) | TGI (SK-MEL-5 melanoma) | TGI (SK-OV-3 ovarian) | TGI (SN12C renal) | TGI (SNB-19 CNS) | TGI (SW-620 colon) | TGI (T-47D breast) | TGI (TK-10 renal) | TGI (U251 CNS) | TGI (UACC-257 melanoma) | TGI (UACC-62 melanoma) | TGI (UO-31 renal)

N#Cc1c(-c2ccccc2)c(C#N)c(=S)n(C2OC(CO)C(O)C(O)C2O)c1N (centres undefined)
inactive: GI50 (EKVX NSCLC) 44.4 µM and > 100 µM | GI50 (HOP-62 NSCLC) > 100 µM and 36 µM | GI50 (HOP-92 NSCLC) 42 µM and 21 µM | GI50 (IGROV1 ovarian) > 100 µM and 45.5 µM | GI50 (MCF7 breast) 91.1 µM and 41.6 µM | GI50 (MOLT-4 leukemia) 39.3 µM and > 100 µM | GI50 (TK-10 renal) 40.5 µM and > 100 µM | GI50 (UO-31 renal) > 100 µM and 40.3 µM
> 100 µM: TGI (786-0 renal) | TGI (A498 renal) | TGI (A549 NSCLC) | TGI (ACHN renal) | TGI (BT-549 breast) | TGI (CAKI-1 renal) | TGI (CCRF-CEM leukemia) | TGI (DU-145 prostate) | TGI (EKVX NSCLC) | TGI (HCC-2998 colon) | TGI (HCT-116 colon) | TGI (HCT-15 colon) | TGI (HL-60(TB) leukemia) | TGI (HOP-62 NSCLC) | TGI (HOP-92 NSCLC) | TGI (HS 578T breast) | TGI (HT29 colon) | TGI (IGROV1 ovarian) | TGI (K-562 leukemia) | TGI (KM12 colon) | TGI (LOX IMVI melanoma) | TGI (M14 melanoma) | TGI (MALME-3M melanoma) | TGI (MCF7 breast) | TGI (MDA-MB-231 breast) | TGI (MDA-N) | TGI (MOLT-4 leukemia) | TGI (NCI-H226 lung) | TGI (NCI-H23 lung) | TGI (NCI-H460 lung) | TGI (NCI-H522 lung) | TGI (OVCAR-3 ovarian) | TGI (OVCAR-4 ovarian) | TGI (OVCAR-5 ovarian) | TGI (OVCAR-8 ovarian) | TGI (PC-3 prostate) | TGI (RPMI-8226 leukemia) | TGI (RXF 393 renal) | TGI (SF-268 CNS) | TGI (SF-295 CNS) | TGI (SF-539 CNS) | TGI (SK-MEL-2 melanoma) | TGI (SK-MEL-28 melanoma) | TGI (SK-MEL-5 melanoma) | TGI (SN12C renal) | TGI (SNB-19 CNS) | TGI (SNB-75 CNS) | TGI (SR leukemia) | TGI (SW-620 colon) | TGI (T-47D breast) | TGI (TK-10 renal) | TGI (U251 CNS) | TGI (UACC-257 melanoma) | TGI (UACC-62 melanoma) | TGI (UO-31 renal)
